Here are results for 23 compounds from ChEMBL document CHEMBL4406860, “Discovery of potent ureido tetrahydrocarbazole derivatives for cancer treatments through targeting tumor-associated macrophages” (Eur J Med Chem, 2019).

The source made the active and inactive calls. The rule behind the calls is not given here.

In data set [1] the test system is RAW264.7. The data set can be described thus: Increase in TNF-alpha production in mouse RAW264.7 cells at 50 uM incubated for 24 hrs by ELISA (reference value: 1133.56 +/- 46.61 pg/ml). In kind it is functional. (In an ELISA, binding on a coated surface is turned into a signal by an enzyme label.)
For data set [2], the system named is RAW264.7. The data set can be described thus: Increase in TNF-alpha production in mouse RAW264.7 cells incubated for 24 hrs by ELISA. The class given is functional, cell-based. The conditions noted are these: RAW264.7, 24 h.
The nature of data set [3]: Increase in TNF-alpha production in mouse BMDM cells incubated for 24 hrs by ELISA. The class given is functional, cell-based.
Data set [4] relates to RAW264.7. The data set can be described thus: Induction of M1-phenotype markers expression in mouse RAW264.7 cells assessed as increase in IL-1beta expression incubated for 1 hr by qRT-PCR. In kind it is functional, cell-based. Background: Real-time PCR tracks product formation cycle by cycle.
Data set [5] concerns RAW264.7. In words: Induction of M1-phenotype markers expression in mouse RAW264.7 cells assessed as increase in TNFalpha expression incubated for 1 hr by qRT-PCR. The class given is functional, cell-based.
Data set [6] has as its system RAW264.7. In words: Induction of M1-phenotype markers expression in mouse RAW264.7 cells assessed as increase in iNOS expression incubated for 1 hr by qRT-PCR. In kind it is functional, cell-based.
Data set [7] deals with RAW264.7. In words: Induction of M1-phenotype markers expression in mouse RAW264.7 cells assessed as increase in IL-12alpha expression incubated for 1 hr by qRT-PCR. In kind it is functional, cell-based.
In data set [8] the test system is RAW264.7. The data set can be described thus: Inhibition of M2-phenotype markers expression in mouse RAW264.7 cells assessed as decrease in IL-4 -induced CD206 expression incubated for 1 hr by qRT-PCR. The class given is functional, cell-based.
In data set [9] the test system is RAW264.7. The data set can be described thus: Inhibition of M2-phenotype markers expression in mouse RAW264.7 cells assessed as decrease in IL-4 -induced in Arg-1 expression incubated for 1 hr by qRT-PCR. In kind it is functional, cell-based.
Data set [10] has as its system RAW264.7. The data set can be described thus: Inhibition of M2-phenotype markers expression in mouse RAW264.7 cells assessed as decrease in IL-4 -induced in Fizz-1 expression incubated for 1 hr by qRT-PCR. The class given is functional, cell-based.
The test system of data set [11] is RAW264.7. The data set can be described thus: Inhibition of M2-phenotype markers expression in mouse RAW264.7 cells assessed as decrease in IL-4 -induced in Ym-1R expression incubated for 1 hr by qRT-PCR. The class given is functional, cell-based.
For data set [12], the system named is RAW264.7. In words: Induction of M1-phenotype associated markers in mouse RAW264.7 cells assessed as F4/80-MHC II expression incubated for 24 hrs by flow cytometry (reference value: 12.1 %). The class given is functional. On the technique in general: A flow cytometer gives signals particle by particle.
Data set [13] relates to RAW264.7. In words: Inhibition of M2-phenotype associated markers in mouse RAW264.7 cells assessed as F4/80-CD206 expression in presence of IL4 incubated for 24 hrs by flow cytometry (reference value: 7.54 %). The class given is functional.
The test system of data set [14] is RAW264.7. In words: Cytotoxicity against mouse RAW264.7 cells assessed as reduction in cell viability at 1000 uM incubated for 24 hrs by CCK-8 assay. As to conditions: raw264.7, 24 h. The class given is cell-based.
Data set [15] relates to Lewis lung carcinoma cell line. The data set can be described thus: Antitumor activity against mouse LLC cells xenografted in C57BL/6 mouse assessed as reduction in tumor volume at 5 mg/kg, ip administered every other day for 30 days. The class given is functional, organism-based.
Data set [16] relates to Lewis lung carcinoma cell line. The data set can be described thus: Antitumor activity against mouse LLC cells xenografted in C57BL/6 mouse assessed as reduction in tumor volume in prescence of anti-PD1 at 5 mg/kg, ip administered every other day for 30 days. In kind it is functional, organism-based.
Data set [17] has as its system Lewis lung carcinoma cell line. The data set can be described thus: Antitumor activity against mouse LLC cells xenografted in C57BL/6 mouse assessed as reduction in tumor weight at 5 mg/kg, ip administered every other day for 30 days. In kind it is functional, organism-based.
Data set [18] relates to Lewis lung carcinoma cell line. The data set can be described thus: Antitumor activity against mouse LLC cells xenografted in C57BL/6 mouse assessed as reduction in tumor weight in prescence of anti-PD1 at 5 mg/kg, ip administered every other day for 30 days. In kind it is functional, organism-based.
Data set [19] can be described thus: Toxicity in C57BL/6 mouse xenografted with mouse LLC cells assessed as effect on lungs at 5 mg/kg, ip administered every other day for 30 days by H and E staining based microscopic analysis. The class given is organism-based. As to conditions: in vivo, 720 h.
Data set [20] in a line: Toxicity in C57BL/6 mouse xenografted with mouse LLC cells assessed as effect on liver at 5 mg/kg, ip administered every other day for 30 days by H and E staining based microscopic analysis. In kind it is organism-based. The conditions noted are these: in vivo, 720 h.
Data set [21] concerns Mus musculus. The data set can be described thus: In vivo induction of M1-phenotype associated marker in C57BL/6 mouse xenografted with mouse LLC cells assessed as increase in F4/80-iNOS expression at 5 mg/kg, ip administered every other day for 30 days by DAPI staining based immunofluorescence microscopic analysis. In kind it is functional, organism-based.
In data set [22] the test system is Mus musculus. The data set can be described thus: In vivo inhibition of M2-phenotype associated marker in C57BL/6 mouse xenografted with mouse LLC cells assessed as decrease in F4/80-CD206 expression at 5 mg/kg, ip administered every other day for 30 days by DAPI staining based immunofluorescence microscopic analysis. In kind it is functional, organism-based.

For data set [23], the system named is Mus musculus. The data set can be described thus: In vivo induction of M1-phenotype associated marker in C57BL/6 mouse xenografted with mouse LLC cells assessed as increase in F4/80-iNOS expression in presence of anti-PD1 at 5 mg/kg, ip administered every other day for 30 days by DAPI staining based immunofluorescence microscopic analysis. The class given is functional, organism-based.

Data set [24] has as its system Mus musculus. In words: In vivo inhibition of M2-phenotype associated marker in C57BL/6 mouse xenografted with mouse LLC cells assessed as decrease in F4/80-CD206 expression in presence of anti-PD1 at 5 mg/kg, ip administered every other day for 30 days by DAPI staining based immunofluorescence microscopic analysis. The class given is functional, organism-based.
A short description of data set [25]: Toxicity in C57BL/6 mouse xenografted with mouse LLC cells assessed as effect on body weight in prescence of anti-PD1 (1 mg/kg) at 5 mg/kg, ip administered every other day for 30 days. The class given is organism-based. As to conditions: in vivo, 720 h.
The nature of data set [26]: Toxicity in C57BL/6 mouse xenografted with mouse LLC cells assessed as effect on body weight at 5 mg/kg, ip administered every other day for 30 days. In kind it is organism-based. The conditions noted are these: in vivo, 720 h.

`O=C(Nc1ccc(Cl)c(C(F)(F)F)c1)NC1CCc2[nH]c3cccc(C(=O)NC4CC4)c3c2C1` (configuration not stated): the Activity with RAW264.7 [1] came out at 6427.32 pg/mL.
On to `CN1CCN(C(=O)c2ccc3[nH]c4c(c3c2)CC(NC(=O)Nc2ccc(Cl)c(C(F)(F)F)c2)CC4)CC1` (configuration not stated), for which the Activity with RAW264.7 [1] was found to be 4935.9 pg/mL.
Same read-out and setting: the figure for `O=C(Nc1ccc(Cl)c(C(F)(F)F)c1)NC1CCc2[nH]c3c(C(=O)NCCOCCO)cccc3c2C1` (configuration not stated) is 3364.65 pg/mL.
As usually defined, the EC50 is the concentration at which the effect is half-maximal. A higher EC50 goes with weaker potency. Turning to `Cn1cc(-c2cccc3[nH]c4c(c23)CC(NC(=O)Nc2ccc(Cl)c(C(F)(F)F)c2)CC4)cn1` (configuration not stated), the Activity with RAW264.7 [1] is 5994.12 pg/mL; with RAW264.7 [4], “Dose-dependent effect”; with RAW264.7 [5] it was “Dose-dependent effect”; in the data set on RAW264.7 [6] it was “Dose-dependent effect”; with RAW264.7 [7] it was “Dose-dependent effect”; with RAW264.7 [12], 24.4%. Also, the Activity entry (in the data set with RAW264.7 [14]; in [19]; in data set [20]; in data set [25]; in [26]) was “Non-Toxic” throughout. The EC50 in the data set with RAW264.7 [2] came out at 17.2 µM; in data set [3], 18.9 µM. For the same compound, the inhibition entry with RAW264.7 [8], with RAW264.7 [9], in the data set with RAW264.7 [10] and in the data set on RAW264.7 [11] was “Dose-dependent effect” throughout. Also, the “inhibition (INH)” value with RAW264.7 [13] was determined as 8.76%. Moreover, the outcome (in data set [15]; in data set [16]; in data set [17]; in data set [18]; in the data set on Mus musculus [21]; in the data set on Mus musculus [22]) was Active. Also, the outcome in the data set with Mus musculus [23] and in the data set with Mus musculus [24] was Active.
In the data set on RAW264.7 [1], `O=C(Nc1ccc(Cl)c(C(F)(F)F)c1)NC1CCc2[nH]c3cccc(C(=O)N4CCOCC4)c3c2C1` (configuration not stated) showed an Activity of 4025.54 pg/mL.
Turning to `O=C(Nc1ccc(Cl)c(C(F)(F)F)c1)NC1CCc2[nH]c3ccc(C(=O)NCCOCCO)cc3c2C1` (configuration not stated), the Activity in the data set with RAW264.7 [1] worked out at 561.78 pg/mL.
Consider `O=C(Nc1ccc(Cl)c(C(F)(F)F)c1)NC1CCc2[nH]c3cccc(C(=O)NCCOCCO)c3c2C1` (configuration not stated), for which, in the data set on RAW264.7 [1], the Activity was 500.62 pg/mL.
In the data set with RAW264.7 [1], `CN1CCN(C(=O)c2ccc3c4c([nH]c3c2)CCC(NC(=O)Nc2ccc(Cl)c(C(F)(F)F)c2)C4)CC1` (configuration not stated) gave an Activity of 6552.76 pg/mL.
Turning to `CC(C)NC(=O)c1ccc2c3c([nH]c2c1)CCC(NC(=O)Nc1ccc(Cl)c(C(F)(F)F)c1)C3` (configuration not stated), the Activity with RAW264.7 [1] is 5566.34 pg/mL.
Turning to `O=C(Nc1ccc(Cl)c(C(F)(F)F)c1)NC1CCc2[nH]c3cc(C(=O)NCCOCCO)ccc3c2C1` (configuration not stated), in the data set on RAW264.7 [1], the Activity was 6968.79 pg/mL.
Still for that read-out and setting: in the case of `O=C(Nc1ccc(Cl)c(C(F)(F)F)c1)NC1CCc2[nH]c3ccc(C(=O)NC4CC4)cc3c2C1` (configuration not stated) it was 4458.11 pg/mL; in that of `O=C(Nc1ccc(Cl)c(C(F)(F)F)c1)NC1CCc2[nH]c3cc(C(=O)N4CCOCC4)ccc3c2C1` (configuration not stated), 6085.83 pg/mL.
`O=C(Nc1ccc(Cl)c(C(F)(F)F)c1)NC1CCc2[nH]c3ccc(C(=O)N4CCOCC4)cc3c2C1` (configuration not stated) gave an Activity with RAW264.7 [1] of 5510.03 pg/mL.
Same read-out and setting: in the case of `CN1CCN(C(=O)c2cccc3[nH]c4c(c23)CC(NC(=O)Nc2ccc(Cl)c(C(F)(F)F)c2)CC4)CC1` (configuration not stated) it was 3714.66 pg/mL.
In the case of `O=C(Nc1ccc(Cl)c(C(F)(F)F)c1)NC1CCc2[nH]c3c(C(=O)NC4CC4)cccc3c2C1` (configuration not stated), in the data set with RAW264.7 [1], the Activity was 7730.01 pg/mL. Also, the EC50 in the data set with RAW264.7 [2] was determined as 18.4 µM; in [3] it was 63.5 µM.
The compound `O=C(Nc1ccc(Cl)c(C(F)(F)F)c1)NC1CCc2[nH]c3cc(C(=O)NCCCO)ccc3c2C1` (configuration not stated) had an Activity in the data set on RAW264.7 [1] of 5030.39 pg/mL.
Same read-out and setting: in the case of `O=C(Nc1ccc(Cl)c(C(F)(F)F)c1)NC1CCc2[nH]c3cc(-c4cnn(CCO)c4)ccc3c2C1` (configuration not stated) it was 6043.84 pg/mL.
Consider `O=C(Nc1ccc(Cl)c(C(F)(F)F)c1)NC1CCc2[nH]c3c(C(=O)N4CCOCC4)cccc3c2C1` (configuration not stated), for which, in the data set with RAW264.7 [1], the Activity worked out at 4127.15 pg/mL.
`O=C(Nc1ccc(Cl)c(C(F)(F)F)c1)NC1CCc2[nH]c3cccc(-c4cnn(CCO)c4)c3c2C1` (configuration not stated) came in with an Activity in the data set on RAW264.7 [1] of 6714.86 pg/mL. The EC50 in the data set on RAW264.7 [2] was determined as 13.4 µM; in data set [3], 20.9 µM.
On to `Cn1cc(-c2ccc3c4c([nH]c3c2)CCC(NC(=O)Nc2ccc(Cl)c(C(F)(F)F)c2)C4)cn1` (configuration not stated), for which the Activity in the data set on RAW264.7 [1] amounted to 3770.66 pg/mL.
The same measure, in the same setting: the figure for `O=C(Nc1ccc(Cl)c(C(F)(F)F)c1)NC1CCc2[nH]c3cc(C(=O)NC4CC4)ccc3c2C1` (configuration not stated) is 6034.58 pg/mL.
In turn, `O=C(Nc1ccc(Cl)c(C(F)(F)F)c1)NC1CCc2[nH]c3cc(C(=O)NCCO)ccc3c2C1` (configuration not stated) registered an Activity in the data set on RAW264.7 [1] of 4377.67 pg/mL.
As for `CN1CCN(C(=O)c2cccc3c4c([nH]c23)CCC(NC(=O)Nc2ccc(Cl)c(C(F)(F)F)c2)C4)CC1` (configuration not stated), the Activity in the data set with RAW264.7 [1] is 2506.98 pg/mL.
